Data as given in patent US20220389007A1, “INHIBITORS OF HUMAN IMMUNODEFICIENCY VIRUS REPLICATION” (VIIV HEALTHCARE UK (No. 5) LIMITED, priority 2019, published 2022).

Key:
recombinant NL4-3 virus = assay: HIV cell culture assay (antiviral activity, luciferase readout); format: cell-based; settings: Human immunodeficiency virus 1, NL43, MT2, MT-2 cells infected for 4-5 days with recombinant NL4-3 virus carrying Renilla luciferase
Outline: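 MT-2 cells infected for 4-5 days with NL4-3 reference virus carrying Renilla luciferase in place of part of nef, in presence of serial compound dilutions. Luciferase read with live-cell substrate; EC50 from median effect equation fit.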

[1] = Compound cytotoxicity, XTT-based colorimetric assay; format: cell-based; settings: human; uninfected MT2 cells, day 4, XTT assay
Outline: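 Run under the antiviral-assay protocol but without virus. Viability was read on day 4 and CC50 values were derived from the readout.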

Structure (SMILES) | EC50 (recombinant NL4-3 virus) [nM] | CC50 at 4 day [1] [nM]
Cn1nc(NS(C)(=O)=O)c2c(Cl)ccc(-n3c([C@H](Cc4cc(F)cc(F)c4)NC(=O)Cn4nc(C(F)F)c5c4C(F)(F)[C@@H]4C[C@H]54)nc4nc(-c5cnn(CC(F)(F)F)c5)ccc4c3=O)c21 (atropisomer, axis not shown; (P)) [Example 75, N-((S)-1-((3P)-3-(4-chloro-1-methyl-3-(methylsulfonamido)-1H-indazol-7-yl)-4-oxo-7-(1-(2,2,2-trifluoroethyl)-1H-pyrazol-4-yl)-3,4-dihydropyrido[2,3-d]pyrimidin-2-yl)-2-(3,5-difluorophenyl)ethyl)-2-((3bS,4aR)-3-(difluoromethyl)-5,5-difluoro-3b,4,4a,5-tetrahydro-1H-cyclopropa[3,4]cyclopenta[1,2-c]pyrazol-1-yl)acetamide] | 0.09 | > 100
Cc1cc(C)nc(-c2ccc3c(=O)n(-c4ccc(Cl)c5c(NS(C)(=O)=O)nn(C)c45)c([C@H](Cc4cc(F)cc(F)c4)NC(=O)Cn4nc(C(F)F)c5c4C(F)(F)[C@@H]4C[C@H]54)nc3n2)n1 (atropisomer, axis not shown; (P)) [Example 11, N-((S)-1-((3P)-3-(4-chloro-1-methyl-3-(methylsulfonamido)-1H-indazol-7-yl)-7-(4,6-dimethylpyrimidin-2-yl)-4-oxo-3,4-dihydropyrido[2,3-d]pyrimidin-2-yl)-2-(3,5-difluorophenyl)ethyl)-2-((3bS,4aR)-3-(difluoromethyl)-5,5-difluoro-3b,4,4a,5-tetrahydro-1H-cyclopropa[3,4]cyclopenta[1,2-c]pyrazol-1-yl)acetamide] | 0.036 | > 100
Cn1nc(NS(C)(=O)=O)c2c(Cl)ccc(-n3c([C@H](Cc4cc(F)cc(F)c4)NC(=O)Cn4nc(C(F)F)c5c4C(F)(F)[C@@H]4C[C@H]54)nc4nc(-c5csc(C(F)(F)F)n5)ccc4c3=O)c21 (atropisomer, axis not shown; (P)) [Example 4, N-((S)-1-((3P)-3-(4-chloro-1-methyl-3-(methylsulfonamido)-1H-indazol-7-yl)-4-oxo-7-(2-(trifluoromethyl)thiazol-4-yl)-3,4-dihydropyrido[2,3-d]pyrimidin-2-yl)-2-(3,5-difluorophenyl)ethyl)-2-((3bS,4aR)-3-(difluoromethyl)-5,5-difluoro-3b,4,4a,5-tetrahydro-1H-cyclopropa[3,4]cyclopenta[1,2-c]pyrazol-1-yl)acetamide] | 0.055 | > 100
Cn1nc(NS(C)(=O)=O)c2c(Cl)ccc(-n3c([C@H](Cc4cc(F)cc(F)c4)NC(=O)Cn4nc(C(F)F)c5c4C(F)(F)[C@@H]4C[C@H]54)nc4nc(-c5cccc(C(F)(F)F)n5)ccc4c3=O)c21 (atropisomer, axis not shown; (P)) [Example 9, N-((S)-1-((3P)-3-(4-chloro-1-methyl-3-(methylsulfonamido)-1H-indazol-7-yl)-4-oxo-7-(6-(trifluoromethyl)pyridin-2-yl)-3,4-dihydropyrido[2,3-d]pyrimidin-2-yl)-2-(3,5-difluorophenyl)ethyl)-2-((3bS,4aR)-3-(difluoromethyl)-5,5-difluoro-3b,4,4a,5-tetrahydro-1H-cyclopropa[3,4]cyclopenta[1,2-c]pyrazol-1-yl)acetamide] | 0.065 | > 100
Cn1nc(NS(C)(=O)=O)c2c(Cl)ccc(-n3c([C@H](Cc4cc(F)cc(F)c4)NC(=O)Cn4nc(C(F)F)c5c4C(F)(F)[C@@H]4C[C@H]54)nc4nc(-c5nccc(C(F)F)n5)ccc4c3=O)c21 (atropisomer, axis not shown; (P)) [Example 6, N-((S)-1-((3P)-3-(4-chloro-1-methyl-3-(methylsulfonamido)-1H-indazol-7-yl)-7-(4-(difluoromethyl)pyrimidin-2-yl)-4-oxo-3,4-dihydropyrido[2,3-d]pyrimidin-2-yl)-2-(3,5-difluorophenyl)ethyl)-2-((3bS,4aR)-3-(difluoromethyl)-5,5-difluoro-3b,4,4a,5-tetrahydro-1H-cyclopropa[3,4]cyclopenta[1,2-c]pyrazol-1-yl)acetamide] | 0.023 | > 100
Cn1nc(NS(C)(=O)=O)c2c(Cl)ccc(-n3c([C@H](Cc4cc(F)cc(F)c4)NC(=O)Cn4nc(C(F)F)c5c4C(F)(F)[C@@H]4C[C@H]54)nc4nc(-c5ccn(CCCF)n5)ccc4c3=O)c21 (atropisomer, axis not shown; (P)) [Example 87, N-((S)-1-((3P)-3-(4-chloro-1-methyl-3-(methylsulfonamido)-1H-indazol-7-yl)-7-(1-(3-fluoropropyl)-1H-pyrazol-3-yl)-4-oxo-3,4-dihydropyrido[2,3-d]pyrimidin-2-yl)-2-(3,5-difluorophenyl)ethyl)-2-((3bS,4aR)-3-(difluoromethyl)-5,5-difluoro-3b,4,4a,5-tetrahydro-1H-cyclopropa[3,4]cyclopenta[1,2-c]pyrazol-1-yl)acetamide] | 0.036 | > 100
Cn1nc(NS(C)(=O)=O)c2c(Cl)ccc(-n3c([C@H](Cc4cc(F)cc(F)c4)NC(=O)Cn4nc(C(F)F)c5c4C(F)(F)[C@@H]4C[C@H]54)nc4nc(-c5ccc(F)cc5C(F)(F)F)ccc4c3=O)c21 (atropisomer, axis not shown; (P)) [Example 22, N-((S)-1-((3P)-3-(4-chloro-1-methyl-3-(methylsulfonamido)-1H-indazol-7-yl)-7-(4-fluoro-2-(trifluoromethyl)phenyl)-4-oxo-3,4-dihydropyrido[2,3-d]pyrimidin-2-yl)-2-(3,5-difluorophenyl)ethyl)-2-((3bS,4aR)-3-(difluoromethyl)-5,5-difluoro-3b,4,4a,5-tetrahydro-1H-cyclopropa[3,4]cyclopenta[1,2-c]pyrazol-1-yl)acetamide] | 0.052 | > 100
Cn1nc(NS(C)(=O)=O)c2c(Cl)ccc(-n3c([C@H](Cc4cc(F)cc(F)c4)NC(=O)Cn4nc(C(F)F)c5c4C(F)(F)[C@@H]4C[C@H]54)nc4nc(-c5ccc(F)c(C(F)(F)F)c5)ccc4c3=O)c21 (atropisomer, axis not shown; (P)) [Example 19, N-((S)-1-((3P)-3-(4-chloro-1-methyl-3-(methylsulfonamido)-1H-indazol-7-yl)-7-(4-fluoro-3-(trifluoromethyl)phenyl)-4-oxo-3,4-dihydropyrido[2,3-d]pyrimidin-2-yl)-2-(3,5-difluorophenyl)ethyl)-2-((3bS,4aR)-3-(difluoromethyl)-5,5-difluoro-3b,4,4a,5-tetrahydro-1H-cyclopropa[3,4]cyclopenta[1,2-c]pyrazol-1-yl)acetamide] | 0.23 | > 100
Cn1nc(NS(C)(=O)=O)c2c(Cl)ccc(-n3c([C@H](Cc4cc(F)cc(F)c4)NC(=O)Cn4nc(C(F)F)c5c4C(F)(F)[C@@H]4C[C@H]54)nc4nc(-c5ccccn5)ccc4c3=O)c21 (atropisomer, axis not shown; (P)) [Example 60, N-((S)-1-((3P)-3-(4-chloro-1-methyl-3-(methylsulfonamido)-1H-indazol-7-yl)-4-oxo-7-(pyridin-2-yl)-3,4-dihydropyrido[2,3-d]pyrimidin-2-yl)-2-(3,5-difluorophenyl)ethyl)-2-((3bS,4aR)-3-(difluoromethyl)-5,5-difluoro-3b,4,4a,5-tetrahydro-1H-cyclopropa[3,4]cyclopenta[1,2-c]pyrazol-1-yl)acetamide] | 0.032 | > 100
Cn1nc(NS(C)(=O)=O)c2c(Cl)ccc(-n3c([C@H](Cc4cc(F)cc(F)c4)NC(=O)Cn4nc(C(F)F)c5c4C(F)(F)[C@@H]4C[C@H]54)nc4nc(-c5cncc(C(F)(F)F)n5)ccc4c3=O)c21 (atropisomer, axis not shown; (P)) [Example 13, N-((S)-1-((3P)-3-(4-chloro-1-methyl-3-(methylsulfonamido)-1H-indazol-7-yl)-4-oxo-7-(6-(trifluoromethyl)pyrazin-2-yl)-3,4-dihydropyrido[2,3-d]pyrimidin-2-yl)-2-(3,5-difluorophenyl)ethyl)-2-((3bS,4aR)-3-(difluoromethyl)-5,5-difluoro-3b,4,4a,5-tetrahydro-1H-cyclopropa[3,4]cyclopenta[1,2-c]pyrazol-1-yl)acetamide] | 0.04 | > 100
Cn1nc(NS(C)(=O)=O)c2c(Cl)ccc(-n3c([C@H](Cc4cc(F)cc(F)c4)NC(=O)Cn4nc(C(F)F)c5c4C(F)(F)[C@@H]4C[C@H]54)nc4nc(-c5ccc6ocnc6c5)ccc4c3=O)c21 (atropisomer, axis not shown; (P)) [Example 81, N-((S)-1-(7-(benzo[d]oxazol-5-yl)-(3P)-3-(4-chloro-1-methyl-3-(methylsulfonamido)-1H-indazol-7-yl)-4-oxo-3,4-dihydropyrido[2,3-d]pyrimidin-2-yl)-2-(3,5-difluorophenyl)ethyl)-2-((3bS,4aR)-3-(difluoromethyl)-5,5-difluoro-3b,4,4a,5-tetrahydro-1H-cyclopropa[3,4]cyclopenta[1,2-c]pyrazol-1-yl)acetamide] | 0.082 | > 100
Cn1nc(NS(C)(=O)=O)c2c(Cl)ccc(-n3c([C@H](Cc4cc(F)cc(F)c4)NC(=O)Cn4nc(C(F)F)c5c4C(F)(F)[C@@H]4C[C@H]54)nc4nc(-c5ccnn5CC5CC5)ccc4c3=O)c21 (atropisomer, axis not shown; (P)) [Example 78, N-((S)-1-((3P)-3-(4-chloro-1-methyl-3-(methylsulfonamido)-1H-indazol-7-yl)-7-(1-(cyclopropylmethyl)-1H-pyrazol-5-yl)-4-oxo-3,4-dihydropyrido[2,3-d]pyrimidin-2-yl)-2-(3,5-difluorophenyl)ethyl)-2-((3bS,4aR)-3-(difluoromethyl)-5,5-difluoro-3b,4,4a,5-tetrahydro-1H-cyclopropa[3,4]cyclopenta[1,2-c]pyrazol-1-yl)acetamide] | 0.09 | > 100
